Measured values: publication PMC9645260, “Small-molecule inhibitors of P-Rex guanine-nucleotide exchange factors” (Small GTPases, 2022)

Legend:
P-Rex2 DH domain = molecular target: T1, P-Rex2 DH domain (Homo sapiens, UniProt Q70Z35); test: Liposome-based GEF activity assay, isolated P-Rex2 DH domain; format: biochemical; settings: 200 nM DH domain, read-out: inhibition of constitutive Rac-GEF activity of isolated P-Rex2 DH domain
T1 construct: constitutive Rac-GEF activity of the isolated P-Rex2 DH domain (by 92%); made in house; host or cells: Sf9 cells (baculovirus)
T1 sequence (Q70Z35 23-214 limits assumed): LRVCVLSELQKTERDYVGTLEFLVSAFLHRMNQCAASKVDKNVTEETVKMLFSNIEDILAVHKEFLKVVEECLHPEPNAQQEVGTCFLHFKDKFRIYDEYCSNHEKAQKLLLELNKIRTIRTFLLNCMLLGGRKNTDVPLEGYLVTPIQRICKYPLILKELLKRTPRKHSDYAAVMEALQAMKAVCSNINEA
Experimental: (§1) Full-length N-terminally EE-tagged P-Rex1, P-Rex2, the P-Rex1 DH and DHPH domains and the P-Rex2 DH domain were produced in Sf9 cells using baculoviral transduction and were purified using anti-EE beads, as previously described. Briefly, frozen pellets from 500 ml of Sf9 culture infected with P-Rex expressing high-titre baculovirus were resuspended in ice-cold lysis Sf9-cell lysis buffer 2 (1x PBS, 1% Triton X-100, 5 mM EGTA, 1 mM EDTA, 25 mM NaF, 20 mM β-glycerophosphate, 1 mM DTT, 100 µM PMSF, 10 μg/ml each of leupeptin, pepstatin A, aprotinin and antipain) for 5 min and then ultracentrifuged at 118,000 × g for 1 h at 4°C. Supernatants were incubated with pre-washed anti-EE beads for 90 min on ice with end-over-end rotation. […] Protein concentration and purity were determined by coomassie staining of SDS-PAGE gels. […]
(§2) Liposome-based GEF activity assays were carried out essentially as described, except that GEFs were incubated with inhibitor compounds prior to the assay. […] Small GTPases were isolated using anti-EE antibody-coupled Sepharose beads or glutathione Sepharose beads, as appropriate, by incubation on ice for 90 min with end-over-end rotation, four washes in ice-cold wash buffer and resuspension of beads in Ultima Gold scintillation fluid (Perkin Elmer). ^35S-GTPγS incorporation was assessed by scintillation counting (Packard 1600TR, Liquid Scintillation Analyser).

Ect2 (DHPH) = molecular target: T2, Ect2 (DHPH) (Homo sapiens, UniProt Q9H8V3); test: Liposome-based GEF activity assay, Ect2; format: biochemical; settings: 10 µM, 500 nM ECT2 DHPH
T2 construct: The ITSN1 DHPH domains and Ect2 DHPH domains, produced in and purified from bacteria; host or cells: bacteria
T2 sequence (Q9H8V3 452-794 limits assumed): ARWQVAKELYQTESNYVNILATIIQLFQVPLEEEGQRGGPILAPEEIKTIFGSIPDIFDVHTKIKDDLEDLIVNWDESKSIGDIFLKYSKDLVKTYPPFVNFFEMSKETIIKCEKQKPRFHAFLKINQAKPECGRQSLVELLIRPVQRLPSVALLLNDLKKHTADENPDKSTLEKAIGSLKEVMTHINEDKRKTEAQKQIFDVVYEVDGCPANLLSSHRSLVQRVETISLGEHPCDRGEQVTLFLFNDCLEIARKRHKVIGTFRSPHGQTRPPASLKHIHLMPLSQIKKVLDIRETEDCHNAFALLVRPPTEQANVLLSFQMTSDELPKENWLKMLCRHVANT
Experimental: as §1, §2

## COc1ccc(-c2[nH]nc3c2C(c2ccc(-c4ccc(Cl)cc4)o2)C(C#N)=C(N)O3)cc1 (centres unmarked) [PREX-in1, 6-amino-4-[5-(4-chlorophenyl)-2-furyl]-3-(4-methoxyphenyl)-2,4-dihydropyrano[2,3-c]pyrazole-5-carbonitrile]
P-Rex2 DH domain
  inhibition at 10 µM: 92%
Ect2 (DHPH)
  effect on GEF activity of Ect2: none of the other GEFs were affected
